Results on one compound are retold here after patent US20190100534A1, “Cephem Compounds with Latent Reactive Groups” (Gladius Pharmaceuticals, Inc., priority 2017, published 2019).

Test [1] concerns Isogenic E. coli J58 strain carrying SHV-1. Nature of the test: MIC determination, isogenic E. coli strains. Format: cell-based. To be noted: Escherichia coli, 18 h, read-out: Mimimum Inhibitory Concentrations, SHV-1. The gist of the method:
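MIC is the lowest compound concentration leaving a transparent well after overnight (18 h) incubation at 37 °C. The test strain was E. coli J53 expressing plasmid-borne SHV-1 beta-lactamase from pBC-SK(+), adjusted to 0.5 McFarland. Compounds were twofold serially diluted, starting at 64 μg/mL, in CAMH broth supplemented with 20 μM apo-transferrin.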

The next test relates to EC(JMI OXA-48). Nature of the test: MIC determination. The class given is cell-based, Escherichia coli. The settings on record: Escherichia coli, CAMH broth, 20 μM Apo-Transferrin, 37° C., 18 hours, read-out: Minimum Inhibitory Concentrations, EC(JMI OXA-48). In a few lines:
(§1)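 Values come from a visual broth microdilution read: the first transparent well at the lowest drug level defines MIC. Inocula were standardized to 0.5 McFarland units, and the medium was CAMH with 20 μM apo-transferrin. Plates incubated overnight, 18 h, at 37 °C.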

The next test deals with CF (RR -1). Nature of the test: MIC determination. The class given is cell-based, Citrobacter freundii. To be noted: CAMH broth, 20 μM Apo-Transferrin, 37° C., 18 hours. In a few lines:
as §1

The test system of another test is KP (URMC-1). The test is described as follows: MIC determination. The class given is cell-based, Klebsiella pneumoniae. To be noted: CAMH broth, 20 μM Apo-Transferrin, 37° C., 18 hours. The gist of the method:
as §1

The subject of a further test is KP (ATCC KPC-3). The test is described as follows: MIC determination. To be noted: CAMH broth, 20 μM Apo-Transferrin, 37° C., 18 hours. The class given is cell-based, Klebsiella pneumoniae. In a few lines:
as §1

For another test, the system named is KP (GJ 5659 TEM-26). The test is described as follows: MIC determination. Format: cell-based, Klebsiella pneumoniae. To be noted: CAMH broth, 20 μM Apo-Transferrin, 37° C., 18 hours. The gist of the method: as §1
For the next test, the system named is KP (RR -1). Nature of the test: MIC determination. The class given is cell-based, Klebsiella pneumoniae. To be noted: CAMH broth, 20 μM Apo-Transferrin, 37° C., 18 hours. In a few lines: as §1
In a further test the test system is KP (URMC-3). Nature of the test: MIC determination. The class given is cell-based, Klebsiella pneumoniae. To be noted: CAMH broth, 20 μM Apo-Transferrin, 37° C., 18 hours. The gist of the method: as §1
The test system of the next test is KP(JMI KPC-2). Nature of the test: MIC determination. The settings on record: CAMH broth, 20 μM Apo-Transferrin, 37° C., 18 hours. Format: cell-based, Klebsiella pneumoniae. The gist of the method: as §1
The subject of the next test is KP(GJ 5934 TEM-26). The test is described as follows: MIC determination. The class given is cell-based, Klebsiella pneumoniae. To be noted: CAMH broth, 20 μM Apo-Transferrin, 37° C., 18 hours. In a few lines: as §1
A further test has as its system KP (URMC-2). Nature of the test: MIC determination. Format: cell-based, Klebsiella pneumoniae. To be noted: CAMH broth, 20 μM Apo-Transferrin, 37° C., 18 hours. In a few lines: as §1
The subject of the next test is PM (RR -1). The test is described as follows: MIC determination. Format: cell-based, Proteus mirabilis. To be noted: CAMH broth, 20 μM Apo-Transferrin, 37° C., 18 hours. The gist of the method:
as §1

Test [2] deals with Isogenic E. coli J58 strain carrying IMP-1. The test is described as follows: MIC determination, isogenic E. coli strains. Format: cell-based. The settings on record: Escherichia coli, 18 h, read-out: Mimimum Inhibitory Concentrations, IMP-1. In a few lines: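 Broth microdilution in cation-adjusted Mueller-Hinton broth with 20 μM apo-transferrin, compound serially diluted two-fold from 64 μg/mL, against E. coli J53 carrying plasmid-borne IMP-1. Inoculum adjusted to 0.5 McFarland; plates incubated 18 h at 37° C. MIC taken as lowest concentration giving a clear well.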

The next test has as its system KP(ATCC TEM-10/TEM-12). Format: cell-based, Klebsiella pneumoniae. The settings on record: CAMH broth, 20 μM Apo-Transferrin, 37° C., 18 hours. The gist of the method:
as §1

In the next test the test system is ENC (ATCC NDM-1). The test is described as follows: MIC determination. Format: cell-based, Enterobacter cloacae. To be noted: CAMH broth, 20 μM Apo-Transferrin, 37° C., 18 hours. In a few lines: as §1
A further test deals with A. baumannii. Nature of the test: MIC determination. Format: cell-based, Acinetobacter baumannii. The settings on record: Acinetobacter baumannii; A. baumannii; CAMH broth, 20 μM Apo-Transferrin, 37° C., 18 hours; read-out: Minimum Inhibitory Concentrations, A. baumannii. The gist of the method: as §1
Test [3] deals with A. baumannii (JMI OXA-58). Nature of the test: MIC determination. The class given is cell-based, Acinetobacter baumannii. The settings on record: Acinetobacter baumannii, class D carbapenemase producer, CAMH broth, 20 μM Apo-Transferrin, 37° C., 18 hours, read-out: Minimum Inhibitory Concentrations, A. baumannii (JMI OXA-58). In a few lines: as §1
The test system of a further test is EA (URMC -3). Nature of the test: MIC determination. The class given is cell-based. The settings on record: CAMH broth, 20 μM Apo-Transferrin, 37° C., 18 hours. In a few lines: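 Organisms grown in LB at 37 °C to OD600 >0.1, adjusted to 0.08-0.1 OD600 in CAMH broth. Compounds two-fold serially diluted from 64 μg/mL in CAMH broth with 20 μM apo-transferrin; plates incubated 18 h at 37 °C. MIC taken as lowest concentration giving a transparent well.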

A further test deals with ENA (URMC-2). Nature of the test: MIC determination. The class given is cell-based, Enterobacter aerogenes. The settings on record: Klebsiella aerogenes, CAMH broth, 20 μM Apo-Transferrin, 37° C., 18 hours, read-out: Minimum Inhibitory Concentrations, ENA (URMC-2). In a few lines:
as §1

Another test concerns ENA (URMC-1). Nature of the test: MIC determination. Format: cell-based, Enterobacter aerogenes. The settings on record: Klebsiella aerogenes, CAMH broth, 20 μM Apo-Transferrin, 37° C., 18 hours, read-out: Minimum Inhibitory Concentrations, ENA (URMC-1). The gist of the method: as §1
The subject of test [4] is Pseudomonas aeruginosa PA (RR-1). The test is described as follows: MIC determination. The class given is cell-based. The settings on record: Pseudomonas aeruginosa; PA (RR-1); CAMH broth, 20 μM Apo-Transferrin, 37° C., 18 hours; read-out: Minimum Inhibitory Concentrations, PA (RR-1). In a few lines: as §1
Test [5] has as its system Pseudomonas aeruginosa PA-RR-(980151052). The test is described as follows: MIC determination. Format: cell-based. The settings on record: Pseudomonas aeruginosa; PA-RR-(980151052); CAMH broth, 20 μM Apo-Transferrin, 37° C., 18 hours; read-out: Minimum Inhibitory Concentrations, PA-RR-(980151052). The gist of the method: as §1
The subject of test [6] is Pseudomonas aeruginosa (PA). The test is described as follows: MIC determination. The settings on record: Pseudomonas aeruginosa; PA; CAMH broth, 20 μM Apo-Transferrin, 37° C., 18 hours; read-out: Minimum Inhibitory Concentrations, PA. Format: cell-based. The gist of the method:
as §1

Test [7] concerns Pseudomonas aeruginosa PA-RR-(G8062859). The test is described as follows: MIC determination. Format: cell-based. To be noted: Pseudomonas aeruginosa; PA-RR-(G8062859); CAMH broth, 20 μM Apo-Transferrin, 37° C., 18 hours; read-out: Minimum Inhibitory Concentrations, PA-RR-(G8062859). The gist of the method:
as §1

The structures appear in SMILES notation. Some results are limits rather than exact numbers.

As to `CC(C)(O/N=C(\C(=O)N[C@@H]1C(=O)N2C(C(=O)O)=C(C=Cc3ccc(C[N+]4(C)CCc5cc(O)c(O)cc5C4)cc3)CS[C@H]12)c1csc(N)n1)C(=O)O` (mixture of isomers) [Compound 407, 2-(4-((E/Z)-2-((6R,7R)-7-((Z)-2-(2-aminothiazol-4-yl)-2-(((2-carboxypropan-2-yl)oxy)imino)acetamido)-2-carboxy-8-oxo-5-thia-1-azabicyclo[4.2.0]oct-2-en-3 yl)vinyl)benzyl)-6,7-dihydroxy-2-methyl-1,2,3,4-tetrahydroisoquinolin-2-ium], the MIC in [1] turned out to be 0.5 µg/mL; with EC(JMI OXA-48), 16 µg/mL; in [2], 32 µg/mL; with A. baumannii, 2 µg/mL; in [3], 16 µg/mL; in the test on ENA (URMC-2) it was 0.5 µg/mL. Also, the MIC in the test on ENA (URMC-1) stood at 0.5 µg/mL; in test [4] it was 4 µg/mL; in test [5] it was 0.06 µg/mL; in test [6] it was 2 µg/mL; in test [7], 0.06 µg/mL. Besides, the “Mimimum Inhibitory Concentrations, CF (RR -1)” value in the test with CF (RR -1) is given as 0.13 microgram/mL. Also, the “Minimum Inhibitory Concentrations, KP (URMC-1)” value with KP (URMC-1) is listed as 0.13 microgram/mL. In addition, the “Minimum Inhibitory Concentrations, KP (ATCC KPC-3)” value in the test on KP (ATCC KPC-3) was 64 microgram/mL. Also, the “Minimum Inhibitory Concentrations, KP (GJ 5659 TEM-26)” value in the test with KP (GJ 5659 TEM-26) was determined as 2 microgram/mL. The “Mimimum Inhibitory Concentrations, KP (RR -1)” value in the test on KP (RR -1) came out at 0.5 microgram/mL. For the same compound, in the test on KP (URMC-3), the “Minimum Inhibitory Concentrations, KP (URMC-3)” value worked out at 0.13 microgram/mL. In addition, in the test on KP(JMI KPC-2), the “Minimum Inhibitory Concentrations, KP(JMI KPC-2)” value is recorded as 16 microgram/mL. Besides, the “Minimum Inhibitory Concentrations, KP(GJ 5934 TEM-26)” value with KP(GJ 5934 TEM-26) is reported as 2 microgram/mL. The “Minimum Inhibitory Concentrations, KP (URMC-2)” value with KP (URMC-2) is 0.25 microgram/mL. The “Mimimum Inhibitory Concentrations, PM (RR -1)” value with PM (RR -1) is reported as not above 0.06 microgram/mL. In addition, the “Minimum Inhibitory Concentrations, KP(ATCC TEM-10/TEM-12)” value with KP(ATCC TEM-10/TEM-12) was 0.25 microgram/mL. Also, in the test with ENC (ATCC NDM-1), the “Mimimum Inhibitory Concentrations, ENC (ATCC NDM-1)” value was more than 64 microgram/mL. The “Mimimum Inhibitory Concentrations, EA (URMC -3)” value in the test with EA (URMC -3) was determined as 2 microgram/mL.
